{"source": "patent EP0011828A1", "about": "“Pharmaceutical combinations including hydantoin derivatives, pharmaceutical formulations containing the combinations and methods of making the formulations” (THE WELLCOME FOUNDATION LIMITED, priority 1978, dated 1980)", "key": {"platelet aggregation": {"test_system": "platelet aggregation", "test": "Inhibition of platelet aggregation (general statement)", "type": "cell-based"}, "[1]": {"test_system": "rabbit platelet-rich plasma (PRP)", "test": "Arachidonic acid-induced aggregation in rabbit platelet-rich plasma, Born-type aggregometer", "type": "cell-based", "method": "(§1) Aggregation was induced in rabbit platelet-rich plasma (PRP) by addition of arachidonic acid, and monitored in a Born-type aggregometer. A dose of dipyridamole was selected which caused no inhibition of aggregation when added to the PRP 2 minutes prior to the addition of arachidonic acid. The active compound when added to the PRP 1 minute prior to the addition of arachidonic acid caused a dose-related inhibition of aggregation. The percentage inhibition caused by the active compound was compared in the presence and absence of the selected dose of dipyridamole."}, "human PRP [2]": {"test_system": "human PRP", "test": "ADP-induced aggregation of human PRP, potentiation by theophylline", "type": "cell-based", "method": "[The source words this procedure for another species and says it was used here with some conditions changed.] as §1\nThe experiment of Example 12 was repeated using theophylline, another inhibitor of phosphodiesterase, in place of the dipyridamole. […]"}, "[3]": {"test_system": "histamine-induced broncho-constriction", "settings": "cited from earlier work"}, "[4]": {"test_system": "pentagastrin-induced gastric acid secretion", "settings": "rat, in vivo; cited from earlier work"}, "[5]": {"test_system": "aspirin- induced gastric lesions", "settings": "rats; cited from earlier work"}, "human PRP [6]": {"test_system": "human PRP", "test": "Platelet aggregation in human PRP, potentiation by dipyridamole", "type": "cell-based", "settings": "dipyridamole combined with 5-(6-carboxyhexyl)-1-(3-hydroxy-3-cyclohexylpropyl)hydantoin"}}, "note": "“Also recorded” adds a separate entry of the source."}
{"molecule": "O=C(O)CCCC=CCC1C(=O)NC(=O)N1CCC(O)C1CCCCC1", "note": "(stereo not shown) [5-(6-carboxyhex-2-enyl)-1-(3-hydroxy-3-cyclohexylpropyl)hydantoin]", "values": [{"measurement": "inhibitors of platelet aggregation (activity in words)", "setting": "platelet aggregation", "result": "especially active"}]}
{"molecule": "O=C(O)CCCCCCC1C(=O)NC(=O)N1CCC(O)C1CCCCC1", "note": "(stereo not shown) [5-(6-carboxyhexyl)-1-(3-hydroxy-3-cyclohexylpropyl)hydantoin]", "values": [{"measurement": "inhibition at 0.05 µg/mL", "setting": "[1]; Oryctolagus cuniculus, active compound 50 ng/ml alone, added 1 minute before arachidonic acid, read-out: Percentage Inhibition", "result": 37, "unit": "%"}, {"measurement": "inhibition at 0.075 µg/mL", "setting": "[1]; Oryctolagus cuniculus, active compound 75 ng/ml alone, read-out: Percentage Inhibition", "result": 66, "unit": "%"}, {"measurement": "inhibition at 0.1 µg/mL", "setting": "[1]; Oryctolagus cuniculus, active compound 100 ng/ml alone, read-out: Percentage Inhibition", "result": 100, "unit": "%"}, {"measurement": "Percentage Inhibition", "setting": "[1]; active compound 50 ng/ml with Dipyridamole 50 µg/ml", "result": 77}, {"measurement": "inhibition of rabbit platelet aggregation (potency in words)", "setting": "[1]; rabbit platelets, active compound alone", "result": "not a particularly potent inhibiton of rabbit platelet aggregation"}, {"measurement": "inhibition at 0.0005 µg/mL", "setting": "human PRP [2]; Homo sapiens, active compound 0.5 ng/ml alone, read-out: Percentage Inhibition", "result": 19, "unit": "%"}, {"measurement": "inhibition at 0.001 µg/mL", "setting": "human PRP [2]; Homo sapiens, active compound 1 ng/ml alone, read-out: Percentage Inhibition", "result": 55, "unit": "%"}, {"measurement": "Percentage Inhibition", "setting": "human PRP [2]; active compound 0.5 ng/ml with Theophylline 20 µg/ml", "result": 51}, {"measurement": "Percentage Inhibition", "setting": "human PRP [2]; active compound 1 ng/ml with Theophylline 20 µg/ml", "result": 70}, {"measurement": "inhibitors of platelet aggregation (activity in words)", "setting": "platelet aggregation", "result": "especially active"}]}
{"molecule": "CCCCC(C)(C)C(O)CCN1C(=O)NC(=O)C1CCCCCCC(=O)O", "note": "(stereo not shown) [5-(6-carboxyhexyl)-1-(3-hydroxy-4,4-dimethyloctyl) hydantoin]", "values": [{"measurement": "antagonism of histamine-induced broncho-constriction", "setting": "[3]", "result": "antagonises histamine-induced broncho-constriction"}]}
{"molecule": "CCCCCC(=O)CCN1C(=O)NC(=O)C1CCCCCCC(=O)O", "note": "(stereo not shown) [5-(6-carboxyhexyl)-1-(3-oxo-octyl)hydantoin]", "values": [{"measurement": "inhibition of pentagastrin-induced gastric acid secretion", "setting": "[4]", "result": "inhibits pentagastrin-induced gastric acid secretion"}, {"measurement": "formation of aspirin-induced gastric lesions", "setting": "[5]", "result": "reduces the formation of aspirin- induced gastric lesions in rats"}]}
{"molecule": "O=C(O)CCCCCCC1C(=O)NC(=O)N1CCCCOc1ccccc1", "note": "(stereo not shown) [5-(6-carboxyhexyl)-1-(4-phenoxybutyl) hydantoin]", "values": [{"measurement": "inhibition of pentagastrin-induced gastric acid secretion", "setting": "[4]", "result": "inhibits pentagastrin-induced gastric acid secretion"}, {"measurement": "formation of aspirin-induced gastric lesions", "setting": "[5]", "result": "reduces the formation of aspirin- induced gastric lesions in rats"}]}
{"molecule": "CCCCCC(=O)CCN1C(=O)N(C)C(=O)C1CCCCCCC(=O)O", "note": "(stereo not shown) [5-(6-carboxyhexyl)-3-methyl-1-(3-oxo-octyl)hydantoin]", "values": [{"measurement": "inhibition of pentagastrin-induced gastric acid secretion", "setting": "[4]", "result": "inhibits pentagastrin-induced gastric acid secretion"}, {"measurement": "formation of aspirin-induced gastric lesions", "setting": "[5]", "result": "reduces the formation of aspirin- induced gastric lesions in rats"}]}
{"molecule": "CCCCCC(O)CCN1C(=O)NC(=O)C1CCCCCCC(=O)O", "note": "(stereo not shown) [5-(6-carlJoxy-hexyl)-1-(3-hydroxyoctyl)-hydantoin]", "values": [{"measurement": "inhibition of pentagastrin-induced gastric acid secretion", "setting": "[4]", "result": "inhibits pentagastrin-induced gastric acid secretion"}, {"measurement": "formation of aspirin-induced gastric lesions", "setting": "[5]", "result": "reduces the formation of aspirin- induced gastric lesions in rats"}]}
{"molecule": "OCCN(CCO)c1nc(N2CCCCC2)c2nc(N(CCO)CCO)nc(N3CCCCC3)c2n1", "note": "[Dipyridamole, 2,2', 2\",2'\"-(4,8-dipiperidinopy-rimido [5,4-d]pyrimidine-2,6-diyldinitrilo)tetraethanol, reference compound]", "values": [{"measurement": "inhibition at 50 µg/mL", "setting": "[1]; Oryctolagus cuniculus, Dipyridamole 50 µg/ml alone, added 2 minutes before arachidonic acid, read-out: Percentage Inhibition", "result": 0, "unit": "%"}, {"measurement": "potentiation of the inhibitory activity of the active compound on platelet aggregation", "setting": "[1]; dipyridamole combined with 5-(6-carboxyhexyl)-1-(3-hydroxy-3-cyclohexylpropyl)hydantoin, rabbit PRP", "result": "inhibitory effect of a dose of the active compound in the presence of dipyridamole is approximately equivalent to that caused by twice that dose of the active compound alone; also recorded: produced a potentiation of the anti-aggrcgatory effect of the active compound"}, {"measurement": "potentiation of the anti-aggregatory effect of the active compound", "setting": "human PRP [6]", "result": "a similar potentiation was observed; also recorded: produced a potentiation of the anti-aggrcgatory effect of the active compound"}]}
{"molecule": "Cn1c(=O)c2[nH]cnc2n(C)c1=O", "note": "[Theophylline, 3,7-dihydro-1,3-dimethyl-1H-purine-2,6-dione, reference compound]", "values": [{"measurement": "inhibition at 20 µg/mL", "setting": "human PRP [2]; Homo sapiens, Theophylline 20 µg/ml alone, read-out: Percentage Inhibition", "result": 7, "unit": "%"}, {"measurement": "potentiation of the inhibitory effect of the active compound on ADP - induced aggregation", "setting": "human PRP [2]; theophylline combined with 5-(6-carboxyhexyl)-1-(3-hydroxy-3-cyclohexylpropyl)hydantoin, human PRP", "result": "found to potentiate the inhibitory effect"}]}
